Calls of active or inactive are those of the source. No cut-off for these calls is given here.
Columns and labels:
LNCaP [1] = assay: Cytotoxicity against human LNCAP cells assessed as reduction in cell viability at 500 ug/mL after 24 hrs by trypan blue dye exclusion assay; assay type: functional, cell-based
LNCaP [2] = assay: Cytotoxicity against human LNCAP cells assessed as reduction in cell viability at 500 ug/ml measured after 24 hrs in presence of topotecan by trypan blue dye exclusion test relative to control; assay type: functional
LNCaP [3] = assay: Down regulation of BIRC5 gene expression in human LNCAP cells at 500 ug/ml measured after 24 hrs by RT profile PCR analysis relative to control; assay type: functional
LNCaP [4] = assay: Down regulation of BCL2 gene expression in human LNCAP cells at 500 ug/ml measured after 24 hrs by RT profile PCR analysis relative to control; assay type: functional
LNCaP [5] = assay: Induction of apoptosis in human LNCAP cells assessed as up regulation of p53 expression at 500 ug/ml measured after 24 hrs by immunoblot analysis; assay type: functional, cell-based
LNCaP [6] = assay: Induction of apoptosis in human LNCAP cells assessed as up regulation of p21 expression at 500 ug/ml measured after 24 hrs by immunoblot analysis; assay type: functional, cell-based
LNCaP [7] = assay: Induction of apoptosis in human LNCAP cells assessed as up regulation of pro-apoptotic protein Bax expression at 500 ug/ml measured after 24 hrs in presence of topotecan by Western blot analysis; assay type: functional, cell-based
LNCaP [8] = assay: Induction of apoptosis in human LNCAP cells assessed as up regulation of pro-apoptotic protein Apaf-1 expression at 500 ug/ml measured after 24 hrs by Western blot analysis; assay type: functional, cell-based
LNCaP [9] = assay: Induction of apoptosis in human LNCAP cells assessed as up regulation of cleaved caspase 3 expression at 500 ug/ml measured after 24 hrs by Western blot analysis; assay type: functional, cell-based
LNCaP [10] = assay: Induction of apoptosis in human LNCAP cells assessed as down regulation of Mcl-1 expression at 500 ug/ml measured after 24 hrs by Western blot analysis; assay type: functional, cell-based
LNCaP [11] = assay: Induction of apoptosis against human LNCAP cells assessed as down regulation of survivin expression at 500 ug/ml measured after 24 hrs by Western blot analysis; assay type: functional, cell-based
LNCaP [12] = assay: Induction of apoptosis in 3 hrs FAS inhibitor KP7-6 treated human LNCAP cells assessed as increase in caspase 8 activity at 500 ug/ml measured after 24 hrs by Ac-IETD-pNA substrate based colorimetric assay; assay type: functional, cell-based
[13] = molecular target: T1, Tumor necrosis factor receptor superfamily member 6 (Homo sapiens) (UniProt P25445); assay: Activation of FAS receptor in human LNCAP cells assessed as increase in caspase 8 activity at 500 ug/ml measured after 24 hrs by Ac-IETD-pNA substrate based colorimetric assay; assay type: cell-based
T1 sequence (whole entry): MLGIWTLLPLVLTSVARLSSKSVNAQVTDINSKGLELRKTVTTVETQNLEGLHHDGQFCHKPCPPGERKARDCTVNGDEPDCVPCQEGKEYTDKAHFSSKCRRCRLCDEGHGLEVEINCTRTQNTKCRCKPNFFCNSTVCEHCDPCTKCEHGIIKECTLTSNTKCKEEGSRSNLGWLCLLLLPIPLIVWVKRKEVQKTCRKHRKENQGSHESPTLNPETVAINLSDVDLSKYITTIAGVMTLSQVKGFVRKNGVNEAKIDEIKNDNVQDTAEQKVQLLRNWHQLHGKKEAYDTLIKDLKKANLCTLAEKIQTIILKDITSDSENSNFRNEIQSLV

LNCaP [14] = assay: Induction of apoptosis in human LNCAP cells assessed as increase in cleaved PARP expression at 500 ug/ml measured after 24 hrs by western blot analysis; assay type: functional, cell-based
LNCaP [15] = assay: Induction of apoptosis in human LNCAP cells assessed as increase in cleaved PARP expression at 500 ug/ml measured after 24 hrs in presence of topotecan by Western blot analysis; assay type: functional, cell-based
LNCaP [16] = assay: Induction of apoptosis in human LNCAP cells assessed as increase in FAS expression at 500 ug/ml measured after 24 hrs by Western blot analysis; assay type: functional, cell-based
LNCaP [17] = assay: Induction of DNA fragmentation in human LNCAP cells at 500 ug/ml measured after 24 hrs by agarose gel electrophoresis; assay type: functional, cell-based
[18] = Drug uptake in cytoplasm of human LNCAP cells at 250 to 500 ug/mL incubated for 12 hrs followed by single compound washout by fluorescence microscopic analysis; assay type: ADME, subcellular
[19] = Drug uptake in plasma membrane of human LNCAP cells at 250 to 500 ug/mL incubated for 12 hrs followed by single washout by fluorescence microscopic analysis; assay type: ADME, cell membranes
[20] = Drug uptake in cytoplasm of human LNCAP cells at 250 to 500 ug/ml incubated for 12 hrs followed by 3 times washout by fluorescence microscopic analysis; assay type: ADME, subcellular
LNCaP [21] = assay: Down regulation of IGF1R gene expression in human LNCAP cells at 500 ug/ml measured after 24 hrs by RT profile PCR analysis relative to control; assay type: functional
LNCaP [22] = assay: Down regulation of AKT1 gene expression in human LNCAP cells at 500 ug/ml measured after 24 hrs by RT profile PCR analysis relative to control; assay type: functional
LNCaP [23] = assay: Up regulation of GADD45A gene expression in human LNCAP cells at 500 ug/ml measured after 24 hrs by RT profile PCR analysis relative to control; assay type: functional
LNCaP [24] = assay: Up regulation of FAS gene expression in human LNCAP cells at 500 ug/ml measured after 24 hrs by RT profile PCR analysis relative to control; assay type: functional
LNCaP [25] = assay: Up regulation of BAX gene expression in human LNCAP cells at 500 ug/ml measured after 24 hrs by RT profile PCR analysis relative to control; assay type: functional
LNCaP [26] = assay: Up regulation of TNFRSF1OB gene expression in human LNCAP cells at 500 ug/ml measured after 24 hrs by RT profile PCR analysis relative to control; assay type: functional
LNCaP [27] = assay: Up regulation of TNFRSF10A gene expression in human LNCAP cells at 500 ug/ml measured after 24 hrs by RT profile PCR analysis relative to control; assay type: functional
LNCaP [28] = assay: Up regulation of TP73 gene expression in human LNCAP cells at 500 ug/ml measured after 24 hrs by RT profile PCR analysis relative to control; assay type: functional
LNCaP [29] = assay: Up regulation of BAG1 gene expression in human LNCAP cells at 500 ug/ml measured after 24 hrs by RT profile PCR analysis relative to control; assay type: functional
LNCaP [30] = assay: Up regulation of TNFRSF1B gene expression in human LNCAP cells at 500 ug/ml measured after 24 hrs by RT profile PCR analysis relative to control; assay type: functional
LNCaP [31] = assay: Up regulation of CASP8 gene expression in human LNCAP cells at 500 ug/ml measured after 24 hrs by RT profile PCR analysis relative to control; assay type: functional
LNCaP [32] = assay: Induction of DNA fragmentation in human LNCAP cells at 500 ug/ml measured after 24 hrs in presence of topotecan by agarose gel electrophoresis; assay type: functional, cell-based
LNCaP [33] = assay: Induction of apoptosis in human LNCAP cells assessed as up regulation of p53 expression at 500 ug/ml measured after 24 hrs in presence of topotecan by immunoblot analysis; assay type: functional, cell-based
LNCaP [34] = assay: Induction of apoptosis in human LNCAP cells assessed as up regulation of p21 expression at 500 ug/ml measured after 24 hrs in presence of topotecan by immunoblot analysis; assay type: functional, cell-based
LNCaP [35] = assay: Induction of apoptosis in human LNCAP cells assessed as down regulation of Bcl2 expression at 500 ug/ml measured after 24 hrs by Western blot analysis; assay type: functional, cell-based
LNCaP [36] = assay: Induction of apoptosis in human LNCAP cells assessed as down regulation of Mcl-1 expression at 500 ug/ml measured after 24 hrs in presence of topotecan by Western blot analysis; assay type: functional, cell-based
LNCaP [37] = assay: Induction of apoptosis in human LNCAP cells assessed as down regulation of survivin expression at 500 ug/ml measured after 24 hrs in presence of topotecan by Western blot analysis; assay type: functional, cell-based
LNCaP [38] = assay: Induction of apoptosis in human LNCAP cells assessed as down regulation of Bcl2 expression at 500 ug/ml measured after 24 hrs in presence of topotecan by Western blot analysis; assay type: functional, cell-based
LNCaP [39] = assay: Induction of apoptosis in human LNCAP cells assessed as up regulation of pro-apoptotic protein Apaf-1 expression at 500 ug/ml measured after 24 hrs in presence of topotecan by Western blot analysis; assay type: functional, cell-based
LNCaP [40] = assay: Induction of apoptosis in human LNCAP cells assessed as up regulation of cleaved caspase 3 expression at 500 ug/ml measured after 24 hrs in presence of topotecan by Western blot analysis; assay type: functional, cell-based
LNCaP [41] = assay: Induction of apoptosis in human LNCAP cells assessed as increase in caspase 3 activity at 500 ug/ml measured after 24 hrs by Ac-DEVD-pNA substrate based colorimetric assay; assay type: functional, cell-based
LNCaP [42] = assay: Induction of apoptosis in human LNCAP cells assessed as increase in caspase 9 activity at 500 ug/ml measured after 24 hrs by Ac-LEHD-pNA substrate based colorimetric assay; assay type: functional, cell-based
LNCaP [43] = assay: Induction of apoptosis in human LNCAP cells assessed as increase in caspase 3 activity at 500 ug/ml measured after 24 hrs in presence of topotecan by Ac-DEVD-pNA substrate based colorimetric assay; assay type: functional, cell-based
LNCaP [44] = assay: Induction of apoptosis in human LNCAP cells assessed as increase in caspase 9 activity at 500 ug/ml measured after 24 hrs in presence of topotecan by Ac-LEHD-pNA substrate based colorimetric assay; assay type: functional, cell-based
[45] = molecular target: T1, Tumor necrosis factor receptor superfamily member 6 (Homo sapiens); assay: Activation of FAS receptor in human LNCAP cells assessed as increase in caspase 8 activity at 500 ug/ml measured after 24 hrs in presence of topotecan by Ac-IETD-pNA substrate based colorimetric assay; assay type: cell-based
LNCaP [46] = assay: Induction of apoptosis in human LNCAP cells assessed as decrease in uncleaved PARP expression at 500 ug/ml measured after 24 hrs by Western blot analysis; assay type: functional, cell-based
LNCaP [47] = assay: Induction of apoptosis in human LNCAP cells assessed as decrease in uncleaved PARP expression at 500 ug/ml measured after 24 hrs in presence of topotecan by Western blot analysis; assay type: functional, cell-based
LNCaP [48] = assay: Induction of apoptosis in human LNCAP cells assessed as increase in FAS expression at 500 ug/ml measured after 24 hrs in presence of topotecan by Western blot analysis; assay type: functional, cell-based
[49] = Drug uptake in plasma membrane of human LNCAP cells at 250 to 500 ug/ml incubated for 12 hrs followed by 3 times washout by fluorescence microscopic analysis; assay type: ADME, cell membranes
LNCaP [50] = assay: Induction of apoptosis in human LNCAP cells assessed as Bax/Bcl2 ratio at 500 ug/ml measured after 24 hrs by Western blot analysis; assay type: functional
LNCaP [51] = assay: Induction of apoptosis in human LNCAP cells assessed as Bax/Bcl2 ratio at 500 ug/ml measured after 24 hrs in presence of topotecan by Western blot analysis; assay type: functional

SMILES: C/C=C1/C(=C\c2[nH]c(/C=C3N=C(/C=C4/NC(=O)C(CC)=C4C)C(C)=C/3CCC(=O)O)c(CCC(=O)O)c2C)NC(=O)C1C (stereo unspecified)
- Activity (LNCaP [1]): Active
- Activity (LNCaP [2]): >65%
- fold change (FC) (LNCaP [3]): 0.009
- fold change (FC) (LNCaP [4]): 0.45
- Activity (LNCaP [5]): Active
- Activity (LNCaP [6]): Active
- Activity (LNCaP [7]): Active
- Activity (LNCaP [8]): Active
- Activity (LNCaP [9]): Active
- Activity (LNCaP [10]): Active
- Activity (LNCaP [11]): Active
- Activity (LNCaP [12]): inactive
- Activity [13]: Active
- Activity (LNCaP [14]): Active
- Activity (LNCaP [15]): Active
- Activity (LNCaP [16]): Active
- Activity (LNCaP [17]): Active
- Drug uptake [18]: Not Active
- Drug uptake [19]: Active
- Drug uptake [20]: Not Active
- fold change (FC) (LNCaP [21]): 0.47
- fold change (FC) (LNCaP [22]): 0.56
- fold change (FC) (LNCaP [23]): 6.01
- fold change (FC) (LNCaP [24]): 5.34
- fold change (FC) (LNCaP [25]): 3.84
- fold change (FC) (LNCaP [26]): 2.72
- fold change (FC) (LNCaP [27]): 2.33
- fold change (FC) (LNCaP [28]): 2.23
- fold change (FC) (LNCaP [29]): 1.76
- fold change (FC) (LNCaP [30]): 1.67
- fold change (FC) (LNCaP [31]): 1.2
- Activity (LNCaP [32]): Active
- Activity (LNCaP [33]): Active
- Activity (LNCaP [34]): Active
- Activity (LNCaP [35]): Active
- Activity (LNCaP [36]): Active
- Activity (LNCaP [37]): Active
- Activity (LNCaP [38]): Active
- Activity (LNCaP [39]): Active
- Activity (LNCaP [40]): Active
- Activity (LNCaP [41]): Active
- Activity (LNCaP [42]): Active
- Activity (LNCaP [43]): Active
- Activity (LNCaP [44]): Active
- Activity [45]: Active
- Activity (LNCaP [46]): Active
- Activity (LNCaP [47]): Active
- Activity (LNCaP [48]): Active
- Drug uptake [49]: Active
- Ratio (LNCaP [50]): >1.5
- Ratio (LNCaP [51]): >3.5
